# According to patent publication US20210405025A1, “IDENTIFYING COMPOUNDS FOR TREATING CANCER AND USE THEREOF” (THE UAB RESEARCH FOUNDATION, priority 2018, published 2021):
# Where a name gives a salt, the structure may show the parent alone. Starred links: 1 amine or outer side, 2 acyl side, 3 side chain; linkers in the order of their positions; H or OH if unused. Positions of bridges follow the written chain, without caps; N, C: chain ends. Non-standard residues stand in square brackets, D forms with d. Residues, ends and D or L forms follow the SMILES beside them. Chains are numbered I, II in the order given. Actinocin(9to1) = Cc1c2oc3c(C)ccc(C(=O)[*:1])c3nc-2c(C(=O)[*:2])c(N)c1=O; NMeV = CN[C@H](C(=O)O)C(C)C; Sar = CNCC(=O)O
# Test system: relapsed AML cells
# Test: Drug sensitivity assay, 1,536-well, 3-day culture with individual approved drugs at 10 μM, viability by alamarBlue
# Assay type: cell-based, human
# Conditions: not given
# Summary of the method: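 FACS-sorted viable myeloid blasts from thawed AML samples, 4,000-4,500 cells per 5 μL well, cultured in IMDM with 15% BIT, SCF, FLT3L, IL-3, G-CSF. Drugs added per well; after three days percentage of live cells measured to gauge killing.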
row,Compound,#Cases >70% cell death
1,O=C(O)C1[O][Sb]2[O]C(=O)C([O]2)C(C(=O)O)[O][Sb]2[O]C(=O)C1[O]2 (centres unmarked) [ANTIMONY POTASSIUM TARTRATE TRIHYDRATE],3

# Same assay, conditions: number of relapsed AML cases out of 18 tested with >70% cell death; 10 μM, 3-day culture
row,Compound,#Cases >70% cell death
1,CC(C)(C)[C@]1(O)CCN2C[C@H]3c4ccccc4CCc4cccc(c43)[C@@H]2C1.Cl [(−)-BUTACLAMOL HCL],3
2,CC(=O)OCC(=O)[C@@]12N=C(C)O[C@@H]1C[C@H]1[C@@H]3CCC4=CC(=O)C=C[C@]4(C)[C@H]3[C@@H](O)C[C@@]12C [DEFLAZACORT],8
3,CCN(CC)CCN1C(=O)c2c(c3c4cccc(Cl)c4n([C@@H]4O[C@H](CO)[C@@H](OC)[C@H](O)[C@H]4O)c3c3[nH]c4c(Cl)cccc4c23)C1=O [BECATECARIN],18
4,CN[C@@H]1[C@@H](O)[C@@H](O[C@@H]2[C@@H](O)[C@H](O[C@H]3OC(CN)=CC[C@H]3N)[C@@H](N)C[C@H]2N)OC[C@]1(C)O [SISOMICIN],10
5,CC(C)CC(=O)Nc1n[nH]c2c1CN(C(=O)C1CCN(C)CC1)C2(C)C [PHA-793887],16
6,CC[C@]1(O)C[C@H]2CN(CCc3c([nH]c4ccccc34)[C@@](C(=O)OC)(c3cc4c(cc3OC)N(C=O)[C@H]3[C@@](O)(C(=O)OC)[C@H](OC(C)=O)[C@]5(CC)C=CCN6CC[C@]43[C@@H]65)C2)C1 [VINCRISTINE],14
7,CN1CCN(CCCN2c3ccccc3Sc3ccc(C(F)(F)F)cc32)CC1 [TRIFLUOPERAZINE],3
8,NALTRIBEN METHAN[…],1
9,"Cc1c2oc3c(C)ccc(C(=O)N[C@@H]4C(=O)N[C@H](C(C)C)C(=O)N5CCC[C@H]5C(=O)N(C)CC(=O)N(C)[C@@H](C(C)C)C(=O)O[C@@H]4C)c3nc-2c(C(=O)N[C@@H]2C(=O)N[C@H](C(C)C)C(=O)N3CCC[C@H]3C(=O)N(C)CC(=O)N(C)[C@@H](C(C)C)C(=O)O[C@@H]2C)c(N)c1=O [DACTINOMYCIN] (I: T[dV]P[Sar][NMeV] / II: T[dV]P[Sar][NMeV]; ester I:1-I:C, II:1-II:C; linker I:N-II:N via Actinocin(9to1))",17
10,CC(C)(C)c1nc(-c2cccc(NS(=O)(=O)c3c(F)cccc3F)c2F)c(-c2ccnc(N)n2)s1 [DABRAFENIB],4
11,Cc1ccc2c(Br)cc(Br)c(OC(=O)c3ccccc3)c2n1 [BROXALDINE],2
12,COc1ccc(C[C@H](N)C(=O)N[C@H]2[C@@H](O)[C@H](n3cnc4c(N(C)C)ncnc43)O[C@@H]2CO)cc1 [PUROMYCIN],18
13,C[C@H](CCC(=O)O)[C@H]1CC[C@H]2[C@@H]3[C@@H](O)C[C@@H]4C[C@H](O)CC[C@]4(C)[C@H]3CC[C@]12C [URSODIOL],2
14,C#C[C@]1(O)CC[C@H]2[C@@H]3CCC4=Cc5oncc5C[C@]4(C)[C@H]3CC[C@@]21C [DANAZOL],1
15,CN(C)C(=S)SSC(=S)N(C)C [THIRAM],4
16,C[n+]1c2cc(N)ccc2cc2ccc(N)cc21.[Cl-] [ACRIFLAVINIUM HYDROCHLORIDE],5
17,CCOC(=O)c1c(N)sc2c1CCN(Cc1ccccc1)C2 [Y-3642],1
18,Cc1ccc(C(=O)Nc2ccc(CN3CCN(C)CC3)c(C(F)(F)F)c2)cc1C#Cc1cnc2cccnn12 [PONATINIB],18
19,O=C(Nc1cccnn1)N1CCC(=Cc2cccc(Oc3ccc(C(F)(F)F)cn3)c2)CC1 [PF-4457845],1
20,C=CC(N)CCC(=O)O (centres unmarked) [VIGABATRIN],13
21,COC1=CC(c2cc3ccccc3[nH]2)=N/C1=C\c1[nH]c(C)cc1C [OBATOCLAX],2
22,CC(=O)O[C@@]12CO[C@@H]1C[C@H](O)[C@@]1(C)C(=O)[C@H](O)C3=C(C)[C@@H](OC(=O)[C@H](O)[C@@H](NC(=O)OC(C)(C)C)c4ccccc4)C[C@@](O)([C@@H](OC(=O)c4ccccc4)[C@H]21)C3(C)C [DOCETAXEL],5
23,N#C[C@@H]1CCCN1C(=O)CNC12CC3CC(CC(O)(C3)C1)C2 [VILDAGLIPTIN],1
24,O=C(O)[C@]1(Cc2cccc(Nc3nccs3)n2)CC[C@@H](Oc2cccc(Cl)c2F)CC1 [VX-689 (MK5108)],1
25,C[C@H]1COc2c(C3(N)CC3)c(F)cc3c(=O)c(C(=O)O)cn1c23 [PAZUFLOXACIN],1

row,Compound,#Cases >70% cell death
1,O=C(c1ccc(OCCN2CCCCC2)cc1)c1c(-c2ccc(O)cc2)sc2cc(O)ccc12 [RALOXIFENE],3
2,NNC(=O)c1ccncc1 [ISONIAZID],1
3,CC[C@@H](C(=O)[C@@H](C)[C@@H](O)[C@H](C)CCc1ccc(C)c(O)c1C(=O)O)[C@H]1O[C@](CC)([C@H]2CC[C@](O)(CC)[C@H](C)O2)C[C@@H]1C [LASALOCID SODIUM],10
4,BENZALKONIUM CHLORIDE,15
5,CCCCCCCCNC(C)C(O)c1ccc(SC(C)C)cc1 (centres unmarked) [SULOCTIDIL],12
6,N=C(N)c1ccc(OCCCCCOc2ccc(C(=N)N)cc2)cc1 [PENTAMIDINE],2
7,Cc1cc2nc3ccc(N(C)C)cc3[s+]c2cc1N [TOLONIUM CHLORIDE],11
8,CCn1cc(-c2ccnc3[nH]c(-c4cccc(CN(C)C)c4)cc23)c(-c2ccc(NC(=O)N(C)C)cc2)n1 [GSK1070916],11
9,CC(C)(C)c1[nH]cnc1/C=c1\[nH]c(=O)/c(=C/c2ccccc2)[nH]c1=O [PLINABULIN],12
10,COc1ccc2c(c1)[nH]c1c(C)nccc12 [HARMINE],3
11,CCN(CC)CCOc1ccc(C(=C(Cl)c2ccccc2)c2ccccc2)cc1 [CLOMIFENE],10
12,CCCCCCCCCCC[C@@H](C[C@@H]1OC(=O)[C@H]1CCCCCC)OC(=O)[C@H](CC(C)C)NC=O [ORLISTAT],9
13,CN1CCN(c2ccc3nc(-c4c(N)c5c(F)cccc5[nH]c4=O)[nH]c3c2)CC1 [GFKI-258],16
14,CCCCCN(C)CCC(O)(P(=O)(O)O)P(=O)(O)O [IBANDRONATE],1
15,Cn1cc(-c2[nH]c3cc(NC(=O)[C@H](N)C4CCCCC4)cc4c3c2C=NNC4=O)cn1 [PF-00477736],13
16,Cc1ccc2nc(N)[nH]c(=O)c2c1Sc1ccncc1 [NOLATREXED DIHYDROCHLORIDE],1
17,COc1cc(C(=O)OCCCN2CCCN(CCCOC(=O)c3cc(OC)c(OC)c(OC)c3)CC2)cc(OC)c1OC [DILAZEP DIHYDROCHLORIDE],2
18,Cc1ccc(C(=O)c2cc(O)c(O)c([N+](=O)[O-])c2)cc1 [TOLCAPONE],1
19,COc1cc(C(=O)NCc2ccc(OCCN(C)C)cc2)cc(OC)c1OC [TRIMETHOBENZAMIDE HYDROCHLORIDE],1
20,OC(Cn1cncn1)(Cn1cncn1)c1ccc(F)cc1F [FLUCONAZOLE],1
21,CCCOc1ccc2nc(NC(=O)OC)[nH]c2c1 [OXIBENDAZOLE],5
22,O=C1NCC2(CCN(CCc3ccccc3)CC2)O1 [FENSPIRIDE],3
23,Clc1ccc2c(c1)CCc1cccnc1C2=C1CCNCC1 [DESLORATADINE],1
24,CCC(=O)O[C@]1(C(=O)CCl)[C@@H](C)C[C@H]2[C@@H]3C[C@H](F)C4=CC(=O)C=C[C@]4(C)[C@@]3(F)[C@@H](O)C[C@@]21C [HALOBETASOL PROPIONATE],3
